Test results reported in paper PMC4967259 (The American journal on addictions / American Academy of …, 2016).
Where two headings read alike, the source gives them in different places.

Legend:
[1] = for elimination half-life: metabolite in plasma after iv cocaine, unaffected by donepezil treatment
Cardiovascular response = type: in vivo, human
rats [2] = conditions: cited from earlier work
rodent = rodent studies, acute; cited from earlier work
rats [3] = conditions: cited from earlier work; remark: listed apart in the source
[4] = rat model of ischemic heart disease

Structure (SMILES): CN1[C@H]2CC[C@@H]1[C@@H](C(=O)O)[C@@H](OC(=O)c1ccccc1)C2 [Benzoylecgonine, benzoylecgonine]
- elimination half-life [1]: approximately six hours

Structure (SMILES): COC(=O)[C@H]1[C@@H](OC(=O)c2ccccc2)C[C@@H]2CC[C@H]1N2C [Cocaine, cocaine]
- change in systolic blood pressure (Cardiovascular response; iv cocaine 0.18 and 0.36 mg/kg, most pronounced over the initial 30 minutes): dose-related increases
- Tmax ([1]; human, in vivo, iv, 0.36 mg/kg): 10 min

Structure (SMILES): COc1cc2c(cc1OC)C(=O)C(CC1CCN(Cc3ccccc3)CC1)C2 (centres unmarked) [Donepezil, donepezil]
- effect on increases in blood pressure (Cardiovascular response; oral donepezil 5 mg daily, high-dose cocaine (0.36 mg/kg iv)): not affected
- effect on diastolic blood pressure and heart rate after cocaine (Cardiovascular response; oral donepezil 5 mg daily, iv cocaine, data not shown): unaffected
- effect on peak values of blood pressure and heart rate (Cardiovascular response; oral donepezil 5 mg daily, iv placebo or cocaine 0.18 and 0.36 mg/kg): did not modify peak values
- effect on drug-induced elevations of systolic blood pressure (Cardiovascular response; oral donepezil 5 mg daily, low-dose cocaine (0.18 mg/kg iv), p < 0.001): attenuated
- blood pressure (rats [2]; [4]): without affecting blood pressure
- heart rate (rats [2]; [4]): decreased heart rate
- heart failure and survival (rats [2]; rat, following coronary artery ligation): prevent heart failure and improve survival
- cocaine self-administration (rodent): attenuate cocaine self-administration

Structure (SMILES): COC(=O)[C@@H]1[C@H]2CC[C@@H](C[C@@H]1O)N2C [Ecgonine Methyl Ester, ecgonine methyl ester]
- elimination half-life [1]: approximately five hours

Structure (SMILES): CNC(=O)Oc1ccc2c(c1)[C@]1(C)CCN(C)[C@@H]1N2C [physostigmine]
- cocaine-induced lethality (rats [3]; high doses of physostigmine): increased
- cocaine-induced lethality (rats [3]; low doses of physostigmine): decreased
